US20230054895A1, “METHODS FOR INDUCING BIOSTASIS IN A CELL, TISSUE OR ORGAN” (PRESIDENT AND FELLOWS OF HARVARD COLLEGE, priority 2020, published 2023)
“Also recorded” adds a separate entry of the source. Structures can show the parent of a compound that is named as a salt. Where two headings read alike, the source gives them in different places.

What was measured:
[1] = tested on: Xenopus tadpoles; assay: Oxygen consumption of Xenopus tadpoles and embryos; assay type: in vivo, Xenopus laevis
[2] = tested on: Xenopus tadpoles; assay: Movement / swimming of Xenopus tadpoles (stasis and reversal); assay type: in vivo, Xenopus laevis
Protocol: This slowing of motion is reversible; average movement of the Xenopus tadpoles is returned to pre-treatment levels following removal of Donepezil. […] The drug is removed at 30 minutes, as indicated by the hash-line. Movement resumed within 50 min after drug removal.
To determine if this slowing of movement is reversible, the drug was removed from the culture medium after 30 minutes (denoted by the hashed-line). Movement resumed at the pre-treatment level within 50 min after drug removal.
The effects of SNC-80 and the NCX1 inhibitor KB-R7943 mesylate (also referred to herein as “WC-60) were evaluated alone and in combination. Tadpoles were exposed to SNC-80 at 25 μM for 24 hr continuously, and swimming was assessed. […] Similarly, no effect on oxygen consumption was observed when tadpoles were exposed to KB-R7943 mesylate at 35 uM for 24 h continuously (FIG. 25B).

[3] = tested on: Xenopus tadpoles; assay type: in vivo; conditions: 50 uM for 30 min, recovery, tested over 24 h
Protocol: Tadpoles were then tested over a 24 h period in an automated behavior and cognitive testing platform to measure cognitive or motor function.
Finally, the cognitive and motor function performance of Xenopus tadpoles treated with Donepezil was assessed. […] Following the onset of stasis, the drug was removed and tadpoles were allowed to recover. Tadpoles were then tested over a 24 hour period in an automated behavior and cognitive testing platform to measure whether tadpoles that previously went through stasis had decreased cognitive and motor function performance.

[4] = tested on: Xenopus embryos
Excerpt: Developed tail length assay are used to assess embryo tail development during drug contact.
Automated embryo culture and imaging platform with machine vision processing. Analysis pipeline allows screening scale-up to hundreds of embryos at a given time.
The effects of ^2H2O on metabolism were examined in relation to biostasis in vivo. Xenopus embryos were contacted with 0.1×MMR media prepared with various concentrations of ^2H2O.

[5] = tested on: Xenopus tadpoles; assay: Movement / swimming of Xenopus tadpoles (stasis and reversal); assay type: in vivo, Xenopus laevis; remark: listed apart in the source
[6] = tested on: Caco-2 cells; assay: Respiration / oxygen utilization in Caco-2 cells; assay type: cell-based
[7] = tested on: Caco-2 cells; assay: NAD/NADH live reporting in Caco-2 cells; assay type: cell-based; conditions: 100 uM, p<0.0005, comparable to positive control sodium oxamate
[8] = tested on: rats; conditions: via delta-2 opioid receptor; cited from earlier work
[9] = tested on: Caco-2 cells; assay: Intracellular ATP in Caco-2 cells; assay type: cell-based
[10] = high doses; cited from earlier work
[11] = tested on: Xenopus tadpoles; assay: Oxygen consumption of Xenopus tadpoles and embryos; assay type: in vivo, Xenopus laevis; remark: listed apart in the source
Excerpt: Dynamic drug dosing used to examine stasis control parameters (10 tadpoles/chamber, n=3 replicates).
The oxygen consumption assay described herein above was used.

[12] = tested on: pig hind limb; assay: Pig hind limb ex vivo perfusion on ULiSSES Platform (biostasis of a pig limb)
Protocol: Protocol for Evaluating the Effect of an Agent on Inducing Biostasis of a Pig Limb.
The establishment of biostasis in a mammal according to the methods described herein was evaluated in a pig limb model. Prior to removing a hind limb from the animal, a pre-operation blood draw was preformed to obtain a baseline. The hind limb was removed via an amputation, and four muscle biopsies were immediately taken. For use in RT-PCR, a first biopsy was stored at −80° C. to preserve RNA integrity. For histology, a second biopsy was fixed in formalin and stored at 2-4° C. or at room temperature. For use in ELISA, a third biopsy was snap frozen and stored at −80° C. Finally, in lieu of Microdialysis, a fourth biopsy was snap frozen and stored at −80° C.
The limb was first flushed with 4° C. heparinized Krebs Henseleit Buffer alone. The limb was then weighed and attached to the ULiSSES Platform. The Platform was run subnormothermic relative to […] (e.g., 18-23° C.). During the protocol, the limb was perfused with buffer alone (control) or buffer with SNC-80. Further description of the ULiSSES Platform can be found on the world wide web at www.techbriefs.com/component/content/article/tb/stories/blog/35406.
Following the limb being attached to the platform (time 0 hour), an RNA-preserving biopsy, a formalin-fixed biopsy, and a snap frozen biopsy were taken, and a perfusate sample was also taken. The “perfusate sample” is a sample that is assessed for arterial and […] blood gases, and subjected to a blood chemistry panel to measure sodium, potassium, glucose, and lactate levels. The perfusate sample is further snap frozen for other analyses, including RNAseq and cytokine analysis.
These sampling steps were further repeated at times 3 hours, 6 hours, 12 hours, and 24 hours. At times 9 hours, 15 hours, 18 hours, and 21 hours, a perfusate sample was taken.
The protocol was completed at time 24 hours. The limb was removed from the ULiSSES Platform and weighed. Separate, proof of concept experiments were performed as described above, but were completed at time 6 hours.

[13] = tested on: mice; conditions: FIG. 1, Rawls and Cowan 2006; cited from earlier work
[14] = tested on: tadpoles; assay: Life span of tadpoles in low-oxygen environments; assay type: in vivo, Xenopus; conditions: 50% ^2H2O-treated tadpoles; MMR controls 6 hours
Protocol: At the indicated consumption rate, ^2H2O-treated tadpoles survive for >30 hours as compared to 6 hours for MMR controls.

[15] = tested on: Xenopus tadpoles; assay: Recovery from Donepezil-induced biostasis in tadpoles (tail length, oxygen consumption); assay type: in vivo; conditions: 50 mM kestose in MMR vs MMR alone
Protocol: To determine if an agent plays a role in accelerating recovery following induction of biostasis, tadpoles can be treated with a biostasis-inducing agent as described herein, to induce biostasis and then transferred to a medium containing a test agent, or just medium. Recovery is assessed by assessing development rate following recovery (e.g., by measuring tadpole tail length), movement, and oxygen consumption.

[16] = 25 μM SNC-80, 24 hr continuously
[17] = compared to control treated limb
[18] = perfusate, vs control treatment
[19] = prior to and following treatment
[20] = 50% ^2H2O, 4 days biostasis, 3 days of recovery

CCN(CC)CCCN(c1ccccc1)C1Cc2ccccc2C1 [Aprindine]
oxygen consumption of free swimming tadpoles ([1]; 25 uM, after 20 min of exposure, vs vehicle controls): decreased oxygen consumption

COc1cc2c(cc1OC)C(=O)C(CC1CCN(Cc3ccccc3)CC1)C2 (stereo not shown) [Donepezil, 2-((1-Benzylpiperidin-4-yl)methyl)-5,6-dimethoxy-2,3-dihydro-1H-inden-1-one]
time to slowing of motion after drug addition ([2]; 50 uM Donepezil): ≤ 10 min | time to resumption of movement after drug removal ([2]; 50 uM Donepezil removed at 30 minutes): ≤ 50 min | cognitive performance [3]: may have slightly improved cognitive performance | tail length ([4]; Xenopus tadpoles, compared to vehicle control or SNC-80): reduced tail length

N=C(N)SCCc1ccc(OCc2ccc([N+](=O)[O-])cc2)cc1 [KB-R7943 mesylate]
oxygen consumption in tadpoles ([1]; 35 μM KB-R7943 mesylate, 24 h continuously): no effect | oxygen consumption in tadpoles ([1]; 35 μM KB-R7943 mesylate, 24 h continuously, listed as KB-R7943 Mesylate): No change | swimming ([2]; KB-R7943 mesylate, data not shown): decreased swimming

Oc1ccc2c3c1O[C@H]1c4[nH]c5ccccc5c4C[C@@]4(O)[C@@H](C2)N(CC2CC2)CC[C@]314 [Naltrindole]
blocking of the stasis-inducing effects of SNC-80 ([1]; concentrations up to 100 uM, 4 h of exposure): does not block

C=CCN1C[C@H](C)N([C@H](c2ccc(C(=O)N(CC)CC)cc2)c2cccc(OC)c2)C[C@H]1C [SNC-80, (+)-4-[(αR)-α-((2S,5R)-4-Allyl-2,5-dimethyl-1-piperazinyl)-3-methoxybenzyl]-N,N-diethylbenzamide]
biostatic effect in Xenopus laevis tadpoles ([5]; FIG. 8): reversible biostatic effect | concentration resulting in arrest of tadpole movement ([5]; Xenopus tadpoles): > 100 µM | movement of whole animals ([5]; high-dose administration): completely arrested | oxygen consumption in tadpoles [1, 16]: No change; also recorded: normal | oxygen consumption of embryos ([1]; Xenopus embryos, FIG. 7): reduces oxygen consumption | oxygen consumption in tadpoles ([1]; stasis inducing concentration of SNC-80 in combination with 100 uM Naltrindole): remains decreased | induction of biostasis ([2]; 25 μM SNC-80): not sufficient to induce biostasis | swimming [2, 16]: normal swimming | reversibility of movement arrest ([2]; removal / withdrawal of the drug): reversed upon withdrawal of the drug; also recorded: reversed by removal of the drug | respiration / oxygen utilization [6]: did not inhibit oxygen utilization | respiration / oxygen utilization ([6]; listed as SNC80): respiration unchanged | NAD/NADH ratio [7]: significant increase | reduction of embryo length compared to control ([4]; 0.4 μM SNC-80 (n=5) vs control (n=6), end of dosing period t=48 h): 19.8% | embryo length after drug removed ([4]; 0.4 μM SNC-80, after drug removal): caught up to controls | hypothermia [8]: induce hypothermia | intracellular ATP [9]: reduction in intracellular ATP levels | intracellular ATP ([9]; listed as SNC80): reduces intracellular ATP | convulsions [10]: produces convulsions at high doses | delay in impacting oxygen metabolism ([11]; 60 μM dose, dynamic dosing, 10 tadpoles/chamber, n=3): ~10 min | oxygen consumption and other metrics of metabolic rate ([11]; healthy tissues and Xenopus tadpoles, dose dependence): dose-dependent reduction in oxygen consumption | relative metabolic rate in hind limb ([12]; 3 hours post treatment, slope vs control P<0.0001): marked reduction of metabolic rate; also recorded: noticeable reduction | oxygen uptake in hind limb ([12]; 10 hours post-treatment, vs control treated limb): noticeable reduction | oxygen uptake in hind limb ([12]; 24 hours post-treatment, vs control treated limb): marked reduction | change in mass of limb prior to and following treatment [12, 17]: larger change in a mass; also recorded: greater difference | oxygen uptake in hind limb [12, 17]: markedly reduces oxygen uptake | oxygen uptake levels relative to hypothermic conditions ([12]; data not shown): greater extent than hypothermic conditions | glucose level [12, 18]: No change; also recorded: not a marked difference | lactate level [12, 18]: No change; also recorded: not a marked difference | potassium level [12, 18]: No change; also recorded: not a marked difference | glycogen content inside the cells (PAS, optical density) [12, 19]: remains at a basal level | intercellular edema (histology of limb muscle) [12, 19]: increase in intercellular edema | muscle bundle area (histology) [12, 19]: did not increase significantly | relative metabolic rate in hind limb ([12]; vs control (perfusion medium alone)): markedly reduces metabolic rate | hypothermia [13]: induces hypothermia

[2H]O[2H] [^2H2O, Deuterium oxide]
time to slowed swimming ([5]; 50% ^2H2O): ≤ 10 min | concentrations that were toxic ([5]; tadpoles): > 70% | swimming after return to normal media ([5]; without ^2H2O, data not shown): returned to normal | survival in low-oxygen environment at the indicated consumption rate [14]: > 30 h | oxygen consumption of embryos ([1]; 50% ^2H2O, within hours of contact): reduced oxygen consumption | concentrations with no effect on swimming ([2]; tadpoles): < 50% | embryo length ([4]; 50% ^2H2O in 0.1×MMR): marked reduction in embryo length | adverse effects after recovery [4, 20]: do not exhibit adverse effects | developmental state after recovery [4, 20]: remain developmentally delayed | concentrations with no effect on tail length ([4]; Xenopus embryos): < 50% | concentrations that were toxic ([4]; Xenopus embryos, data not shown): > 70%

OC[C@H]1O[C@@](CO)(OC[C@@]2(O[C@H]3O[C@H](CO)[C@@H](O)[C@H](O)[C@H]3O)O[C@H](CO)[C@@H](O)[C@@H]2O)[C@@H](O)[C@@H]1O [kestose]
recovery from biostasis induced via Donepezil [15]: faster recovery
